This is an account of results in patent US12383535B2, “Hydrogen peroxide-responsive KEAP1-NRF2 ppi inhibitor prodrug, and preparation method therefor” (CHINA PHARMACEUTICAL UNIVERSITY, priority 2019, dated 2025).

Where only a bound is given, the exact number is not on record here.

Data set [1] is described as follows: Parallel artificial membrane permeability assay (PAMPA). The class given is in vitro ADME. The method, then:
Potential solubility data were obtained with a pSOL model 3 instrument (pION INC, Cambridge, Massachusetts, USA). Cell membrane permeability was determined on a PAMPA Explorer instrument (pION).
Subsequently, the permeability of cell membranes was measured by standard parallel artificial membrane permeability assay (PAMPA).
A general note: PAMPA measures passive passage across an artificial lipid membrane.

Data set [2] relates to Nrf2-ARE in RAW264.7 cells. Nature of the data set: ARE inductivity under LPS stimulation. Type of data set: cell-based, mouse. The conditions noted are these: Mus musculus, RAW264.7, read-out: EC50 of ARE inductivity.
Data set [3] relates to RAW264.7 cells. Nature of the data set: IL-1β, IL-6, TNF-α and NO assays in cell culture supernatant. The class given is cell-based, mouse. As to conditions: Mus musculus, RAW264.7, read-out: EC50 for reduction of extracellular NO concentration. The method, then:
IL-1β (IL-1β (m) ELISA kit, EK0394, Boster), IL-18 (IL-18 (m) ELISA kit, EMC011, NeoBioscience), IL-6 (IL-6 (m) ELISA kit EK0411, Boster), TNF-α (TNF-α (m) ELISA kit, EK0527, Boster) and NO (nitrate/nitrite assay kit, S0023, Beyotime, China) were tested using commercially available kits according to the manufacturer's instructions.
Then, several inflammatory mediators closely related to ROS, including IL-1β, IL-6, TNF-α and NO, were further evaluated.

The nature of data set [4]: Drug release rate by HPLC (H2O2 activation of prodrug). The conditions noted are these: in the presence of H2O2, 12 h, UPLC/HRMS. Type of data set: physicochemical. As for the experimental part: The target compound was dissolved in DMSO to give a 10 mM stock solution, which was then stored at −20° C. The final concentration was brought to 50 μM by adding the target compound (10 mM) to phosphate buffered saline (PBS) (10 mM, pH 7.4), and H2O2 was added. The solution was well vortexed, and then incubated at 37° C. Samples were taken at appropriate time intervals and analyzed by HPLC directly after injection, and the peak areas were recorded to calculate the percentage of the compound. The procedure was repeated three times. The following Agilent 1260 HPLC and DAD detectors were used: Agilent C18 column (4.6×150 mm, 3.5 μm); mobile phase: 70% methanol; flow rate: 0.5 mL/min. A standard curve of the compound was plotted against concentration.
After treatment with 10 mM H2O2, the prodrug pro2 was activated with prolonged incubation time and the active parent compound 2 was completely released within 3 h (HPLC-determined conversion >98%, (B) of FIG. 1 and (C) of FIG. 1).

With `COc1ccc(S(=O)(=O)Nc2ccc(N(CC(=O)O)S(=O)(=O)c3ccc(OC)cc3)c3ccccc23)cc1` [Compound 2, N-(4-((4-methoxyphenyl)sulfonamido)naphthalen-1-yl)-N-((4-methoxyphenyl)sulfonyl)glycine], the “Pe at pH 7.4” value in data set [1] was 0.80 10^−6 cm/s. For the same compound, the Papp in data set [1] (pH 7.4, read-out: Pe at pH 7.4) was found to be 0.8 ×10⁻⁶ cm/s. Besides, the results for the EC50 in data set [2] and in data set [3] were greater than 4520 nM and greater than 120 nM, respectively.
On to `COc1ccc(S(=O)(=O)N(CC(=O)N2CCSC2=O)c2ccc(N(CC(=O)N3CCSC3=O)S(=O)(=O)c3ccc(OC)cc3)c3ccccc23)cc1` [pro1, N,N′-(naphthalene-1,4-diyl)bis(4-methoxy-N-(2-oxo-2-(2-oxothiazolidin-3-yl)ethyl)benzenesulfonamide)], for which, in data set [4], the “production of the active parent compound 1” value is given as “no production of the active parent compound 1 could be observed”.
